From patent publication US20240270749A1, “1,2,4-TRIAZOLO[1,5-A]PYRIMIDINE-BASED SLC16A3 INHIBITORS AND THEIR THERAPEUTIC USE” (CEMM - FORSCHUNGSZENTRUM FÜR MOLEKULARE MEDIZIN GMBH, priority 2021, published 2024)
Entries after “also recorded” stand apart in the source; their conditions may differ. Where two headings read alike, the source gives them in different places.

What was measured:
HAP1 SLC16A1^−/− cells [1] = experiment: Synthetic lethality guided viability screening (CellTiter Glo), HAP1 SLC16A1-/- cells (SLC16A3-dependent); format: cell-based; details: for viability at 10 µM / IC50: Homo sapiens; for viability at 10 µM: read-out: HAP1 SLC16A1^−/− % of viability; for IC50: from dose response curves
Experimental: (§1) Compounds were printed to individual wells of 384 well plates (Corning) with Echo acoustic liquid dispenser (Labcyte). HAP1 cells were seeded using a dispenser (Thermo Fischer Scientific) in density 1,000 cells per well in 50 μl. As controls, DMSO or Bortezomib treatments were used. Viability of cells was assessed after 72 hours with CellTiter Glo (Promega) and % of controls were calculated based on RLU values in DMSO (100%) and Bortezomib (0%) wells. First screening was performed in 10 μM final concentration. Second screening was performed in technical duplicates, in 4 point dose response setting, with concentrations ranging from 13-0.5 μM. Third screening was performed in technical triplicates in 6 point dose response setting, with concentrations ranging from 27-0.11 μM. LAMA84 cells were used in density 3,000 cells per well. AZD3965, BAY-8002, syrosingopine and compounds obtained from third party vendors were tested in 96 well plates, with 2,500 cells per well with manual seeding and treatment. Compound efficacy was determined either by comparing % of control, or by IC50 estimation based on dose response curves (calculated with R package drc, or with GraphPad Prism).
(§2) Table 1: Results of synthetic lethality guided chemical screening assay. HAP1 WT, HAP1 SLC16A1^−/− or HAP1 SLC16A3^−/− cell lines were treated with presented compounds for 72 hours and viability was determined by Cell titer glo assay (Promega). Data are presented either as a percentage of viability in HAP1 SLC16A1^−/− cells compared to controls (DMSO=100% and Bortezomib=0%) upon single dose treatment (10 μM) or as IC50 values obtained from dose response curves.

HAP1 WT cells = experiment: Synthetic lethality guided viability screening (CellTiter Glo), HAP1 WT cells; format: cell-based; details: Homo sapiens, 72 hours, Cell titer glo, from dose response curves
Experimental: as §1, §2

HAP1 SLC16A3^−/− cells [2] = experiment: Synthetic lethality guided viability screening (CellTiter Glo), HAP1 SLC16A3-/- cells (SLC16A1-dependent); format: cell-based; details: for IC50: Homo sapiens, HAP1, 72 hours, Cell titer glo, from dose response curves, read-out: HAP1 SLC16A31^−/− IC50
Experimental: as §1, §2

SLC16A3 = biological target: T1, SLC16A3 (Homo sapiens, UniProt O15427); experiment: Cellular Thermal Shift Assay (CETSA), HEK293T lysates with HIBIT-tagged SLC16A3; format: binding; details: HEK293T lysate, HIBIT-tagged SLC16A3, split-nano luciferase readout
T1 construct: expressed in transfected cells; lysate supernatant used
T1 sequence (O15427 1-465): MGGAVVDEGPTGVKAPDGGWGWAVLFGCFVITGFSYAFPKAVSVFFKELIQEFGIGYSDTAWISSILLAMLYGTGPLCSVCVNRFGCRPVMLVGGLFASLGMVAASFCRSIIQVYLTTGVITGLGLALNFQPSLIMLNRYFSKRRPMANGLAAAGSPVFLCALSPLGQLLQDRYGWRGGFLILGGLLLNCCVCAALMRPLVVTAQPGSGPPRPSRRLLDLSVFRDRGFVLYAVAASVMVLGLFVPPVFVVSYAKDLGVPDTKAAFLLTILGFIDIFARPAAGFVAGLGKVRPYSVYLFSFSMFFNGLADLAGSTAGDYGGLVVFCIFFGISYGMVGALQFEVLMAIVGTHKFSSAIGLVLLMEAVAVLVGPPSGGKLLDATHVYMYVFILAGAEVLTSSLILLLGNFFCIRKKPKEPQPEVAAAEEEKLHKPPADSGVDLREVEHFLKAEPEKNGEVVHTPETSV
Experimental: HEK293T cells with stable expression of HIBIT-tagged SLC16A3 were lysed as described in Hashimoto M et al., ACS Chemical Biology, 2018, 13(6):1480-86. Lysates were then centrifugated at 14,000 RPM, 20 min at 4° C. Supernatant were next incubated with tested compounds or DMSO on ice for 1 hour. After that samples were aliquoted to PCR strips, heated in gradient thermocycler for 6 min and let cool down at room temperature (RT) for 3 min. Samples were then centrifugated at 14,000 RPM, 40 min at 4° C. and protein abundance in supernatants was determined using HIBIT lytic detection system (Promega) in 384 well plate. Reagents for HIBIT detection were diluted in lysis buffer (Hashimoto M et al., loc. cit.) instead of buffer provided with kit. All measurements were done in technical triplicate.

HAP1 SLC16A1^−/− cells [3] = experiment: Lactate Glo lactate accumulation, HAP1 SLC16A1-/- cells; format: cell-based; details: 10 μM, 6 hours
Experimental: (§3) Protocol for lactate glo was modified based on Benjamin D et al., Cell Reports, 2018, 25(11):3047-3058.e4. Cells were seeded in 96 well plate in density 30,000 cells per well. Next day cells were treated with tested compounds, AZD3965 and syrosingopine (all in final concentration of 10 μM) or DMSO. After 6 hours of incubation at 37° C., cells were washed twice with PBS, lysed with 0.2N HCl, neutralized with 1M Tris-base (Sigma) and incubated for 1 hour at RT with lactate glo reagents (Promega). Lactate accumulation was then estimated based on luminescence signal.

[4] = test system: cells dependent on SLC16A3 in HAP1 and LAMA84 cell lines; experiment: Selectivity counter screen, HAP1 and LAMA84 cell line panel; format: cell-based; details: panel incl. LAMA84 sgRen/sgSLC16A1/sgSLC16A3, HAP1 dependent on SLC16A7 or SLC16A8, rescue lines
Experimental: as §1
To get further insights into the selectivity and mode of action of these hits, the inventors created a selection of compounds with similar structure to their hits from the whole library and tested those further. […]

HAP1 SLC16A3^−/− cells [5] = experiment: Lactate Glo lactate accumulation, HAP1 SLC16A3-/- cells; format: cell-based; details: 10 μM, 6 hours
Experimental: as §3

[6] = test system: HAP1 dependent on SLC16A7; experiment: Viability of HAP1 cells dependent on SLC16A7; format: cell-based; details: SLC16A7 overexpressed in HAP1 SLC16A3^−/−, SLC16A1 knocked out
Excerpt: To test this, the inventors overexpressed SLC16A7 or SLC16A8 in HAP1 SLC16A3^−/− cells and knocked out SLC16A1 using CRISPR/Cas9. […]

HAP1 SLC16A1^−/− cells [7] = experiment: Growth curve, HAP1 SLC16A1-/- cells; format: cell-based; details: different concentrations; counted 24 h, 48 h, 72 h
Experimental: Cells were seeded in 6 well plate in density of 15,000 cells per well in the presence of different concentrations of tested compounds in DMSO, or matching DMSO concentrations. Cells were washed with PBS, harvested with trypsin and counted with CASY counter (Roche) 24 h, 48 h and 72 h after the seeding. Cell number obtained at 24 h was set as 0, for each time point and concentration two wells were harvested and counted.

NCIH358 cells = experiment: Lactate Glo lactate accumulation, NCIH358 lung cancer cells; format: cell-based; details: 10 μM, 6 hours
Experimental: as §3

NCIH441 cells = experiment: Lactate Glo lactate accumulation, NCIH441 lung cancer cells; format: cell-based; details: 10 μM, 6 hours
Experimental: as §3

[8] = HAP1, single dose 10 μM, 72 hours, Cell titer glo, compared to controls DMSO=100%, Bortezomib=0%

Structure (SMILES) | IC50 (HAP1 WT cells) | IC50 (HAP1 SLC16A3^−/− cells [2]) | IC50 (HAP1 SLC16A1^−/− cells [1]; HAP1, 72 hours, Cell titer glo) | other results
CCOc1ccc(NC(=O)CCc2c(C)nc3nc(C)nn3c2C)cc1 [Compound 15] | – | – | – | viability at 10 µM (HAP1 SLC16A1^−/− cells [1]; HAP1, 72 h): 38.5%
Cc1nc2nc(C)c(CCC(=O)Nc3ccc(Br)c(C)c3)c(C)n2n1 [Compound 11] | – | – | – | viability at 10 µM (HAP1 SLC16A1^−/− cells [1]; [8]): 33.7%
Cc1nc2nc(C)c(CCC(=O)Nc3ccc(Br)cc3)c(C)n2n1 [Compound 16] | – | – | – | viability at 10 µM (HAP1 SLC16A1^−/− cells [1]; [8]): 38.7%
Cc1nc2nc(C(F)(F)F)nn2c(C)c1CCC(=O)Nc1ccc(S(=O)(=O)N2CCCC2)cc1 [Compound 6] | > 30 µM | > 30 µM | 0.41 µM | –
CSc1nc2nc(C)c(CCC(=O)Nc3ccc(C)cc3)c(C)n2n1 [Compound 3] | > 30 µM | > 30 µM | 2.34 µM | –
Cc1cc(NC(=O)CCc2c(C)nc3nc(C(F)(F)F)nn3c2C)ccc1N1CCN(C)CC1 [Compound 5] | > 30 µM | > 30 µM | 5.87 µM | –
CCOc1ccc(NC(=O)CCc2c(C)nc3ncnn3c2C)cc1 [Compound 10] | > 30 µM | > 30 µM | 7.07 µM | viability at 10 µM (HAP1 SLC16A1^−/− cells [1]; [8]): 70.8%
CSc1nc2nc(C)c(CCC(=O)Nc3cc(C)cc(C)c3)c(C)n2n1 [Compound 4] | > 30 µM | > 30 µM | 1.83 µM | –
CCOC(=O)Oc1c(OC)cc(C(=O)O[C@@H]2C[C@@H]3CN4CCc5c([nH]c6cc(OC)ccc56)[C@H]4C[C@@H]3[C@H](C(=O)OC)[C@H]2OC)cc1OC [syrosingopine, reference compound] | – | – | – | effect on viability of HAP1 SLC16A1^−/− cells (in words) (HAP1 SLC16A1^−/− cells [1]): decreased viability
CCc1ccc(NC(=O)CCc2c(C)nc3nc(C)nn3c2C)cc1 [Compound 14] | – | – | – | viability at 10 µM (HAP1 SLC16A1^−/− cells [1]; [8]): 37.5%
Cc1nc2nc(C(F)(F)F)nn2c(C)c1CCC(=O)Nc1cccnc1 [Compound 18] | > 30 µM | > 30 µM | 8.41 µM | –
Cc1nc2nc(C)c(CCC(=O)Nc3ccc(C)c(C)c3)c(C)n2n1 [Compound 13] | – | – | – | shift in melting temperature of SLC16A3 (CETSA) (SLC16A3): showed a shift in melting temperature of SLC16A3; lactate accumulation in HAP1 SLC16A1^−/− cells (HAP1 SLC16A1^−/− cells [3]): lactate accumulation comparable to control (syrosingopine); also recorded: significant lactate accumulation was observed; selective killing in HAP1 and LAMA84 cell line panel (in words) [4]: selectively kill only cells dependent on SLC16A3; lactate accumulation in HAP1 SLC16A3^−/− cells (HAP1 SLC16A3^−/− cells [5]): no accumulation was observed; also recorded: did not affect lactate accumulation; viability at 10 µM (HAP1 SLC16A1^−/− cells [1]; [8]): 37%
COc1ccc(NC(=O)CCc2c(C)nc3nc(C)nn3c2C)cc1 [Compound 17] | – | – | – | viability at 10 µM (HAP1 SLC16A1^−/− cells [1]; HAP1, 72 h): 44.4%
Cc1[nH]nc(C(F)(F)F)c1Cc1sc2c(c1C(=O)N1C[C@](C)(O)CO1)c(=O)n(C)c(=O)n2C(C)C [AZD3965, reference compound] | – | – | – | effect on viability of HAP1 SLC16A3^−/− cells (in words) (HAP1 SLC16A3^−/− cells [2]): reduced viability; killing of HAP1 cells dependent on SLC16A7 (in words) [6]: can be killed
O=C(Nc1ccccc1C(=O)O)c1cc(S(=O)(=O)c2ccccc2)ccc1Cl [BAY-8002, reference compound] | – | – | – | effect on viability of HAP1 SLC16A3^−/− cells (in words) (HAP1 SLC16A3^−/− cells [2]): reduced viability; killing of HAP1 cells dependent on SLC16A7 (in words) [6]: can be killed
CCc1cccc(NC(=O)CCc2c(C)nc3nc(C)nn3c2C)c1 [Compound 12] | – | – | – | viability at 10 µM (HAP1 SLC16A1^−/− cells [1]; [8]): 36.4%
Cc1cc(C)cc(NC(=O)CCc2c(C)nc3nc(C(F)(F)F)nn3c2C)c1 [Compound 2] | > 30 µM | > 30 µM | 4.13 µM | –
Cc1nc2ncnn2c(C)c1CCC(=O)Nc1ccc(S(=O)(=O)N2CCCCCC2)cc1 [Compound 9] | > 30 µM | > 30 µM | 1.98 µM | –
Cc1ccc(NC(=O)CCc2c(C)nc3nc(C(F)(F)F)nn3c2C)cc1 [Compound 1] | > 30 µM | > 30 µM | 3.32 µM | –
Cc1nc2nc(C(F)(F)F)nn2c(C)c1CCC(=O)Nc1ccncc1 [Compound 7] | > 30 µM | > 30 µM | 11.2 µM | –
Cc1nc2nc(C(F)(F)F)nn2c(C)c1CCC(=O)Nc1cnc2ccccc2c1 [Compound 8] | > 30 µM | > 30 µM | 0.25 µM | growth rate / proliferation of HAP1 SLC16A1^−/− cells (HAP1 SLC16A1^−/− cells [7]): confirmed the growth reducing effect; also recorded: slowed down the proliferation in a dose-dependent manner; lactate accumulation in NCIH358 cells (NCIH358 cells): confirmed the lactate accumulation in both cell lines; lactate accumulation in NCIH441 cells (NCIH441 cells): confirmed the lactate accumulation in both cell lines
Cc1nc2nc(C(F)(F)F)nn2c(C)c1CCC(=O)Nc1ccccc1 [Compound 19] | > 30 µM | > 30 µM | 8.94 µM | –
